Data as given in publication PMC5550883, “Binding of doxorubicin to Sorcin impairs cell death and increases drug resistance in cancer cells” (Cell Death & Disease, 2017).
pKd: −log10 of the molar value.

What was measured:
Sorcin [1] = molecular target: T1, Sorcin (Homo sapiens, UniProt P30626); assay: SPR, immobilized Sorcin, one-site fit; type: binding
T1 construct: gene SRI; full-length wild type; immobilized by amine coupling for SPR; homodimer
T1 sequence (P30626 1-198): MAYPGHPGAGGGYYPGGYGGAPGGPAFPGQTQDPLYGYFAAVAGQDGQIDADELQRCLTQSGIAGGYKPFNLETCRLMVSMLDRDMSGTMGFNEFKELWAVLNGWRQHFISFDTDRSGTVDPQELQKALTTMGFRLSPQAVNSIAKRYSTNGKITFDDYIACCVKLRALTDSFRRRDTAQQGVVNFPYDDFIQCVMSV

[2] = molecular target: T2, Sorcin calcium-binding domain (SCBD) (Homo sapiens, UniProt P30626); assay: intrinsic tryptophan/tyrosine fluorescence quenching titration (ex […] nm), two-site fit; conditions: Tris-HCl 10 mM pH 7.5, 0.5 uM EDTA, 25 C; stronger of two sites; unreliable (KD1 below protein concentration, large errors)
T2 construct: gene SRI; dimer
T2 sequence (P30626 32-198): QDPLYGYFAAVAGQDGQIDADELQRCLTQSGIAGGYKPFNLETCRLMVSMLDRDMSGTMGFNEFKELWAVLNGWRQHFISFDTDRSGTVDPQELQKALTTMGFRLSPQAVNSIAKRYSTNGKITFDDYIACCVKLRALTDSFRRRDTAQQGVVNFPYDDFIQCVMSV

Sorcin [3] = molecular target: T1, Sorcin; assay: SPR (OneStep), immobilized Sorcin; type: binding; conditions: HEPES 20 mM pH 7.4, NaCl 150 mM, 2% DMSO, 25 C; CaCl2 or EDTA not told

| Structure (SMILES) | Kd (Sorcin [3]) | other results |
| --- | --- | --- |
| [NH2][Pt]([NH2])([Cl])[Cl] [cisplatin] | – | pKd (Sorcin [1]): 5.77 |
| COc1cccc2c1C(=O)c1c(O)c3c(c(O)c1C2=O)C[C@@](O)(C(=O)CO)C[C@@H]3O[C@H]1C[C@H](N)[C@H](O)[C@H](C)O1 [doxorubicin] | – | affinity constant [2]: 1.4 ± 1 nM |
| CC(=O)O[C@H]1C(=O)[C@@]2(C)[C@H]([C@H](OC(=O)c3ccccc3)[C@]3(O)C[C@H](OC(=O)[C@H](O)[C@@H](NC(=O)c4ccccc4)c4ccccc4)C(C)=C1C3(C)C)[C@]1(OC(C)=O)CO[C@@H]1C[C@@H]2O [paclitaxel] | Sorcin is able to bind doxorubicin, paclitaxel and vinblastine, with high affinity | – |
| CC[C@]1(O)C[C@@H]2CN(CCc3c([nH]c4ccccc34)[C@@](C(=O)OC)(c3cc4c(cc3OC)N(C)[C@H]3[C@@](O)(C(=O)OC)[C@H](OC(C)=O)[C@]5(CC)C=CCN6CC[C@]43[C@@H]65)C2)C1 [vinblastine] | Sorcin is able to bind doxorubicin, paclitaxel and vinblastine, with high affinity | – |
